The record followed here is US20260085081A1, “PHOSPHATIDYLAMINE COMPOUNDS INCLUDING A PLURALITY OF TERTIARY AMINO GROUP STRUCTURES AND COMPOSITIONS THEREOF” (PEKING UNIVERSITY, priority 2022, published 2026).

One assay deals with white adipocyte. Kind of assay: White adipocyte administration, expression relative to SM102. Type of assay: cell-based. Particulars: for White adipocyte administration (PL/SM102) expression strength level: ratio of expression PL/SM102; for expression compared with control SM102: white adipocyte administration. The source says:
(§1) Finally, the expression levels of lipid nanoparticles with a plurality of tertiary amine groups from the embodiments of the present disclosure after intramuscular injection, white adipocyte administration, and intraperitoneal injection are summarized, and compared with lipid nanoparticles prepared from commercially available cationic lipids MC3 and SM102. […] However, the expression rates of the phosphatidylamine lipids with a plurality of tertiary amine groups from embodiments of the present disclosure are higher than that of SM102.

The subject of a further assay is adipose tissue. Kind of assay: Intraperitoneal injection of Fluc-mRNA LNPs, expression and distribution. Type of assay: in vivo, mice. The note with it: for Intraperitoneal injection (PL/SM102) expression strength level: ratio of expression PL/SM102; for expression compared with control SM102: intraperitoneal injection. As to the method: FIG. 10 illustrates the effect of Fluc-mRNA LNPs composed of different structural cationic lipids on the mRNA delivery efficiency after intraperitoneal administration according to some embodiments of the present disclosure. Targeting and expression of PL lipids on adipose tissue after intraperitoneal administration is also evaluated. […] That is to say, the PL lipid structure with the plurality of tertiary amino group structures may enhance the selective targeting of visceral adipocytes. […]
as §1

The nature of assay [1]: Summary of the strongest expressions over the administration routes. The note with it: strongest level of the three administrations.
Text: as §1

The structures appear in SMILES notation.

For the compound `CCCCCCCCC(CCCCCCCC)OC(=O)CCCCCCCOP(=O)(NCCCN1CCN(CCCN(CCCCCCCC(=O)OC(CCCCCCCC)CCCCCCCC)CCCCCCCC(=O)OC(CCCCCCCC)CCCCCCCC)CC1)OCCCCCCCC(=O)OC(CCCCCCCC)CCCCCCCC` [PL38], the “White adipocyte administration (PL/SM102) expression strength level” value (from here on “White adipocyte administration”) in the assay on white adipocyte is “C (C: ≥0.1 and <1)”. Also, in the assay on adipose tissue, the “Intraperitoneal injection (PL/SM102) expression strength level” value (“Intraperitoneal injection” for short) is “D (D: <0.1)”. In addition, the “Summary of the strongest expressions” value in assay [1] is “C (C: ≥0.1 and <1)”.
Consider `CCCCC/C=C\C/C=C\CCCCCCCCOP(=O)(NCCCN(CCCCCCCCCCCC)CCc1ccc(CCN(C)C)cc1)OCCCCCCCC/C=C\C/C=C\CCCCC` [PL21], for which, in the assay on white adipocyte, the “White adipocyte administration” value was “B (B: ≥1 and <2)”; the “expression compared with control SM102” value is listed as “superior to that of the control SM102”. Also, the “Intraperitoneal injection” value in the assay on adipose tissue is “C (C: ≥0.1 and <1)”. Further, the “Summary of the strongest expressions” value in assay [1] is “B (B: ≥1 and <2)”.
As to `CCCCC/C=C\C/C=C\CCCCCCCCOP(=O)(NCCN(CCN(CCN(C)C)CC(O)CCCCCCCCCC)CC(O)CCCCCCCCCC)OCCCCCCCC/C=C\C/C=C\CCCCC` (stereo not drawn) [PL20], in the assay with white adipocyte, the “White adipocyte administration” value is “B (B: ≥1 and <2)”; the “expression compared with control SM102” value is “superior to that of the control SM102”. In the assay on adipose tissue, the “expression compared with control SM102” value is listed as “superior to that of the control SM102”; the “Intraperitoneal injection” value was “B (B: ≥1 and <2)”. Further, the “Summary of the strongest expressions” value in assay [1] was “B (B: ≥1 and <2)”.
As to `CCCCC/C=C\C/C=C\C/C=C\C/C=C\CCCC(=O)OCCCCCCOP(=O)(NCCCN1CCN(CCCN(CCCCCCCCCCCC)CCCCCCCCCCCC)CC1)OCCCCCCOC(=O)CCC/C=C\C/C=C\C/C=C\C/C=C\CCCCC` [PL59], in the assay on white adipocyte, the “White adipocyte administration” value is reported as “A (A: ≥2)” and the “expression compared with control SM102” value is “superior to that of the control SM102”. The “Intraperitoneal injection” value with adipose tissue is given as “D (D: <0.1)”. Besides, the “Summary of the strongest expressions” value in assay [1] is “A (A: ≥2)”.
Take `CCC/C=C\C/C=C\C/C=C\C/C=C\C/C=C\C/C=C\CCC(=O)OCCCCCCOP(=O)(NCCCN1CCN(CCCN(CCCCCCCCCCCC)CCCCCCCCCCCC)CC1)OCCCCCCOC(=O)CC/C=C\C/C=C\C/C=C\C/C=C\C/C=C\C/C=C\CCC` [PL61]: in the assay on white adipocyte, the “White adipocyte administration” value is “C (C: ≥0.1 and <1)”. In addition, the “Intraperitoneal injection” value with adipose tissue is listed as “D (D: <0.1)”. The “Summary of the strongest expressions” value in assay [1] is “C (C: ≥0.1 and <1)”.
`CCCCCCCCCCC(O)CN(CCCN1CCN(CCCNP(=O)(OCCCCCCCCOC(=O)C(CC)CCCC)OCCCCCCCCOC(=O)C(CC)CCCC)CC1)CC(O)CCCCCCCCCC` (stereo not drawn) [PL78]: in the assay on white adipocyte, the “White adipocyte administration” value was “B (B: ≥1 and <2)”; the “expression compared with control SM102” value was “superior to that of the control SM102”. Besides, in the assay on adipose tissue, the “expression compared with control SM102” value was “superior to that of the control SM102”; the “Intraperitoneal injection” value was “B (B: ≥1 and <2)”. Also, in assay [1], the “Summary of the strongest expressions” value is “B (B: ≥1 and <2)”.
`CC/C=C\C/C=C\C/C=C\C/C=C\C/C=C\CCCC(=O)OCCCCCCOP(=O)(NCCCN1CCN(CCCN(CCCCCCCCCCCC)CCCCCCCCCCCC)CC1)OCCCCCCOC(=O)CCC/C=C\C/C=C\C/C=C\C/C=C\C/C=C\CC` [PL60]: the “White adipocyte administration” value in the assay with white adipocyte is “C (C: ≥0.1 and <1)”. Besides, the “Intraperitoneal injection” value in the assay with adipose tissue is given as “D (D: <0.1)”. Also, in assay [1], the “Summary of the strongest expressions” value is “C (C: ≥0.1 and <1)”.
